US4598066A, “Antimycoplasmal agent for animals and method of use for prevention and treatment of mycoplasmosis” (Fujisawa Pharmaceutical Co., Ltd., priority 1982, dated 1986)

System: Mycoplasma gallisepticum 1RF
Experiment: Test 5: Mycoplasma gallisepticum 1RF intranasal infection in chickens, Compound 1 and tylosin alone and combined
Type: in vivo, chicken
Conditions: single oral dose 100 mg/kg 1 hr after intranasal infection; 20 days after infection (group C)
Method: Mycoplasma: Mycoplasma gallisepticum 1RF supplied from the National Institute of Animal Health, Ibaraki prefecture, Japan was used.
Chickens used: Broiler males (Chunky), purchased as day-old chickens from a commercial flock free of Mycoplasma gallisepticum agglutinins, were maintained under isolation in an electrically heated battery brooder. When birds reached 7 to 8 days of age, they were used for test.
Infection of mycoplasma: Mycoplasma gallisepticum 1RF was cultured in PPLO liquid medium (Difco) for 3 to 4 days at 37° C. until the colour of broth changed from red to yellowish organge. An aliquot of the culture (10^7 -10^8 cfu/ml) was used for infection.
Intranasal infections were produced by dropping 0.05 ml of the culture into the nasal cavity of chickens.
Recovery of mycoplasma: Twenty to 21 days after infection, the chickens were killed and recovery of mycoplasma was examined from the trachea, air-sac, and tibia-metatarsus joints.
Recovered organisms were identified as Mycoplasma gallisepticum after examining glucose fermentation, colonies, and haemadsorption test.
Inhibition(%) of infection: Average recovery percentage of Mycoplasma gallisepticum from trachea, air-sac, and tibia-metatarsus joints was measured infected medicated, and infected non-medicated chickens.
Inhibition(%) was calculated as follows: [formula] […]

## CC[C@H]1OC(=O)C[C@@H](O)[C@H](C)[C@@H](O[C@@H]2O[C@H](C)[C@@H](O[C@H]3C[C@@](C)(O)[C@@H](O)[C@H](C)O3)[C@H](N(C)C)[C@H]2O)[C@@H](CC=O)C[C@@H](C)C(=O)/C=C/C(C)=C/[C@@H]1CO[C@@H]1O[C@H](C)[C@@H](O)[C@@H](OC)[C@H]1OC [Tylosin, tylosin]
  Inhibition (%) of infection: 17%
